The values below come from US20060089375A1, “Pyrazolo[3,4-b] pyridine compounds, and their use as phosphodiesterase inhibitors” (priority 2002, published 2006).

The structures appear in SMILES notation.

The target of the experiment is T1, PDE4B (human recombinant) (Homo sapiens, UniProt Q07343).
T1 construct: made in house
T1 sequence (Q07343 1-564 isoform Q07343-2): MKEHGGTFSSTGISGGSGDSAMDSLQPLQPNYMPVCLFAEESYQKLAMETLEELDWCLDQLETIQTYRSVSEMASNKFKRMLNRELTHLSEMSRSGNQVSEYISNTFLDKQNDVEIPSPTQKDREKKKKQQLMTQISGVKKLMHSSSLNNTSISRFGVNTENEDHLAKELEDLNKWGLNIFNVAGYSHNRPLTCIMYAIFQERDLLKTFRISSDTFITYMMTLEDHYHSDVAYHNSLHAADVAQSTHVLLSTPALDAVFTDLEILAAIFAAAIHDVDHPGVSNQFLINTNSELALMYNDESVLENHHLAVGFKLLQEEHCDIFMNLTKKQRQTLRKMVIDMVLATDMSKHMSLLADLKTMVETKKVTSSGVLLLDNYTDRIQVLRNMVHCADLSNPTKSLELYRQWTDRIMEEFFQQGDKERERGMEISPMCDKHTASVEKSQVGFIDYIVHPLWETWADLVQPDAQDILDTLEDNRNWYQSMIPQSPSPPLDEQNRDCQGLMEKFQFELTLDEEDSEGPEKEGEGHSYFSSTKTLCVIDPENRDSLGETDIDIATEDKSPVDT
The experiment is described as follows: Inhibition of PDE4B activity: radioactive SPA or IMAP Fluorescence Polarisation (FP) assay. It counts as biochemical. To be noted: PDE4B inhibitory activity, one reading or average of ca. 2-6 readings, read-out: PDE4B pIC50 (± about 0.5) (converted). The text has this:
Human recombinant PDE4B, in particular the 2B splice variant thereof (HSPDE4B2B), is disclosed in WO 94/20079 and also M. M. McLaughlin et al., “A low Km, rolipram-sensitive, cAMP-specific phosphodiesterase from human brain: cloning and expression of cDNA, biochemical characterisation of recombinant protein, and tissue distribution of mRNA”, J. Biol. Chem., 1993, 268, 6470-6476. For example, in Example 1 of WO 94/20079, human recombinant PDE4B is described as being expressed in the PDE-deficient yeast Saccharomyces cerevisiae strain GL62, e.g. after induction by addition of 150 uM CuSO4, and 100,000×g supernatant fractions of yeast cell lysates are described for use in the harvesting of PDE4B enzyme.
The ability of compounds to inhibit catalytic activity at PDE4B or 4D (human recombinant), PDE3 (from bovine aorta), PDE5 (human recombinant) or PDE6 (from bovine retina) was determined by Scintillation Proximity Assay (SPA) in 96-well format. Test compounds (preferably as a solution in DMSO, e.g. 0.5 to 1 microlitre (ul) volume) were preincubated at ambient temperature (room temperature, e.g. 19-23° C.) in Wallac Isoplates (code 1450-514) with PDE enzyme in 50 mM Tris-HCl buffer pH 7.5, 8.3 mM MgCl2, 1.7 mM EGTA, 0.05% (w/v) bovine serum albumin for 10-30 minutes (usually 30 minutes). The enzyme concentration was adjusted so that no more than 20% hydrolysis of the substrate defined below occurred in control wells without compound, during the incubation. For the PDE3, PDE4B and PDE4D assays, [5′,8-^3H]Adenosine 3′,5′-cyclic phosphate (Amersham Pharmacia Biotech, code TRK.559; or Amersham Biosciences UK Ltd, Pollards Wood, Chalfont St Giles, Buckinghamshire HP8 4SP, UK) was added to give 0.05 uCi per well and ˜10 nM final concentration. For the PDE5 and PDE6 assays, [8-^3H]Guanosine 3′,5′-cyclic phosphate (Amersham Pharmacia Biotech, code TRK.392) was added to give 0.05 uCi per well and ˜36 nM final concentration. Plates, e.g. containing approx. 100 ul volume of assay mixture, were mixed on an orbital shaker for 5 minutes and incubated at ambient temperature for 1 hour. Phosphodiesterase SPA beads (Amersham Pharmacia Biotech, code RPNQ 0150) were added ([…] per well) to terminate the assay. Plates were sealed and shaken and allowed to stand at ambient temperature for 35 minutes to 1 hour (preferably 35 minutes) to allow the beads to settle. Bound radioactive product was measured using a WALLAC TRILUX 1450 Microbeta scintillation counter. For inhibition curves, 10 concentrations (1.5 nM-30 uM) of each compound were assayed. Curves were analysed using ActivityBase and XLfit (ID. Business Solutions Limited, 2 Ocean Court, Surrey Research Park, Guildford, Surrey GU2 7QB, United Kindgom) Results were expressed as pIC50 values.
The ability of compounds to inhibit catalytic activity at PDE4B (human recombinant) or PDE4D (human recombinant) was determined by IMAP Fluorescence Polarisation ([…]) assay (IMAP Explorer kit, available from Molecular Devices Corporation, Sunnydale, Calif., USA; Molecular Devices code: R^8062) in 384-well format. The IMAP FP assay is able to measure PDE activity in an homogenous, non-radioactive assay format. The FP assay uses the ability of immobilised trivalent metal cations, coated onto nanoparticles (tiny beads), to bind the phosphate group of Fl-AMP that is produced on the hydrolysis of fluorescein-labelled (Fl) cyclic adenosine mono-phosphate (Fl-cAMP) to the non-cyclic Fl-AMP form. […] Binding of Fl-AMP product to the beads (coated with the immobilised trivalent cations) slows the rotation of the bound Fl-AMP and leads to an increase in the fluorescence polarisation ratio of parallel to perpendicular light. Inhibition of the PDE reduces/inhibits this signal increase. […]
(In fluorescence polarisation assays a small probe gives low polarisation when free and higher when bound to something large.)
Regarding `CCC(CC)CNC(=O)c1cnc2c(cnn2CC)c1NC1CCOCC1` [Example 44, 1-Ethyl-N-(2-ethylbutyl)-4-(tetrahydro-2H-pyran-4-ylamino)-1H-pyrazolo[3,4-b]pyridine-5-carboxamide], the IC50 is 12.6 to 100 nM.

As to `CCn1ncc2c(NC3CCOCC3)c(C(=O)NCc3cccc(Cl)c3Cl)cnc21` [Example 626, N-[(2,3-Dichlorophenyl)methyl]-1-ethyl-4-(tetrahydro-2H-pyran-4-ylamino)-1H-pyrazolo[3,4-b]pyridine-5-carboxamide], the IC50 is 0.1 to 6.31 nM.

With `CCn1ncc2c(NC3CCOCC3)c(C(=O)NCc3cccc(C)c3C)cnc21` [Example 625, N-[(2,3-Dimethylphenyl)methyl]-1-ethyl-4-(tetrahydro-2H-pyran-4-ylamino)-1H-pyrazolo[3,4-b]pyridine-5-carboxamide], the IC50 is 0.1 to 6.31 nM. `CCn1ncc2c(NC3CCOCC3)c(C(=O)NCc3ccc(OC)c(OC)c3)cnc21` [Example 167, N-(3,4-Dimethoxybenzyl)-1-ethyl-4-(tetrahydro-2H-pyran-4-ylamino)-1H-pyrazolo[3,4-b)pyridine-5-carboxamide]: the IC50 is 0.1 to 6.31 nM. To `CCn1ncc2c(NC3CCCC(O)C3)c(C(=O)NCc3ccccc3)cnc21` (centres unmarked) [Example 198, N-Benzyl-1-ethyl-4-[(3-hydroxycyclohexyl)amino]-1H-pyrazolo[3,4-b]pyridine-5-carboxamide] belongs 3.16 nM; to `CCn1ncc2c(NC3CCC(=NO)CC3)c(C(=O)NCc3ccc(C)c(Cl)c3)cnc21` (centres unmarked) [Example 683, N-[(3-Chloro-4-methylphenyl)methyl]-1-ethyl-4-{[4-(hydroxyimino)cyclohexyl]amino}-1H-pyrazolo[3,4-b]pyridine-5-carboxamide], 0.1 to 6.31 nM; to `CCn1ncc2c(NC3CCOCC3)c(C(=O)NCc3ccc(C)cc3)cnc21` [Example 528, 1-Ethyl-N-[(4-methylphenyl)methyl]-4-(tetrahydro-2H-pyran-4-ylamino)-1H-pyrazolol[3,4-b]pyridine-5-carboxamide], 0.1 to 6.31 nM. Under `CCn1ncc2c(NC3CCOCC3)c(C(=O)NCc3c(CO)ccc(Cl)c3Cl)cnc21` [Example 643, N-{[2,3-Dichloro-6-(hydroxymethyl)phenyl]methyl}-1-ethyl-4-(tetrahydro-2H-pyran-4-ylamino)-1H-pyrazolo[3,4-b]pyridine-5-carboxamide] stands 0.1 to 6.31 nM; under `CCn1ncc2c(NC3CCC(=O)CC3)c(C(=O)NC3Cc4ccccc4C3)cnc21` [Example 271, N-(2,3-Dihydro-1H-inden-2-yl)-1-ethyl-4-[(4-oxocyclohexyl)amino]-1H-pyrazolo[3,4-b]pyridine-5-carboxamide], 0.1 to 6.31 nM; under `CCn1ncc2c(NC3CCC(=NO)CC3)c(C(=O)NCc3ccc(C)cc3C)cnc21` (centres unmarked) [Example 680, N-[(2,4-Dimethylphenyl)methyl]-1-ethyl-4-{[4-(hydroxyimino)cyclohexyl]amino}-1H-pyrazolo[3,4-b]pyridine-5-carboxamide], 0.1 to 6.31 nM. Take `CCn1ncc2c(NC3CCCC3)c(C(=O)Nc3ccc(F)cc3)cnc21` [Example 47, 4-(Cyclopentylamino)-1-ethyl-N-(4-fluorophenyl)-1H-pyrazolo[3,4-b]pyridine-5-carboxamide]: the IC50 is 12.6 to 100 nM. `CCn1ncc2c(NC3CCC(=NO)CC3)c(C(=O)NCc3ccc(Cl)cc3C)cnc21` (centres unmarked) [Example 684, N-[(4-Chloro-2-methylphenyl)methyl]-1-ethyl-4-{[4-(hydroxyimino)cyclohexyl]amino}-1H-pyrazolo[3,4-b]pyridine-5-carboxamide]: the IC50 is 0.1 to 6.31 nM. Under `CCOC(=O)c1cnc2c(cnn2CC)c1NC1CCOCC1` [Example 3, Ethyl 1-ethyl-4-(tetrahydro-2H-pyran-4-ylamino)-1H-pyrazolo[3,4-b]pyridine-5-carboxylate] stands 15.8 nM; under `CCn1ncc2c(NC3CCCC3)c(C(=O)NCc3ccccc3)cnc21` [Example 39, N-Benzyl-4-(cyclopentylamino)-1-ethyl-1H-pyrazolo[3,4-b]pyridine-5-carboxamide], 12.6 to 100 nM. To `CCn1ncc2c(NC3CCOCC3)c(C(=O)NCc3ccc(Cl)cc3F)cnc21` [Example 622, N-[(4-Chloro-2-fluorophenyl)methyl]-1-ethyl-4-(tetrahydro-2H-pyran-4-ylamino)-IH-pyrazolo[3,4-b]pyridine-5-carboxamide] belongs 0.1 to 6.31 nM; to `CCn1ncc2c(NC3CCOCC3)c(C(=O)NCc3c(C)cc(Cl)cc3Cl)cnc21` [Example 644, N-[(2,4-Dichloro-6-methylphenyl)methyl]-1-ethyl-4-(tetrahydro-2H-pyran-4-ylamino)-1H-pyrazolo[3,4-b]pyridine-5-carboxamide], 0.1 to 6.31 nM; to `CCn1ncc2c(NC3CCCCC3)c(C(=O)NCc3ccncc3)cnc21` [Example 32, 4-(Cyolohexylamino)-1-ethyl-N-(pyridin-4-ylmethyl)-1H-pyrazolo[3,4-b]pyridine-5-carboxamide], 20 nM.

`CCC(CC)CNC(=O)c1cnc2c(cnn2CC)c1NC1CCCC1` [Example 42, 4-(Cyclopentylamino)-1-ethyl-N-(2-ethylbutyl)-1H-pyrazolo[3,4-b]pyridine-5-carboxamide]: the IC50 is 12.6 to 100 nM. Under `CCn1ncc2c(NC3CCN(C(C)=O)CC3)c(C(=O)NCc3ccccc3)cnc21` [Example 41, 4-[(1-Acetylpiperidin-4-yl)amino]-N-benzyl-1-ethyl-1H-pyrazolo[3,4-b]pyridine-5-carboxamide] stands 12.6 to 100 nM. Under `CCOC(=O)c1cnc2c(cnn2CC)c1NC1CCCCC1` [Example 2, Ethyl 4-(cyclohexylamino)-1-ethyl-1H-pyrazolo[3,4-b]pyridine-5-carboxylate] stands 10 nM. As for `CCn1ncc2c(NC3CCOCC3)c(C(=O)NCc3ccccn3)cnc21` [Example 600, 1-Ethyl-N-(2-pyridinylmethyl)-4-(tetrahydro-2H-pyran-4-ylamino)-1H-pyrazolo[3,4-b]pyridine-5-carboxamide], the IC50 is 12.6 to 100 nM. Under `CCOC(=O)c1cnc2c(cnn2CC)c1NC1CCSC1` (racemic) [Example 11, Ethyl 1-ethyl-4-(tetrahydrothien-3-ylamino)-1H-pyrazolo[3,4-b]pyridine-5-carboxylate] stands 39.8 nM. Under `Cn1ncc2c(NC3CCOCC3)c(C(=O)NCc3ccccc3)cnc21` [Example 63, N-Benzyl-1-methyl-4-(tetrahydro-2H-pyran-4-ylamino)-1H-pyrazolo[3,4-b]pyridine-5-carboxamide] stands 126 nM; under `CCn1ncc2c(NC3CCC(=NO)CC3)c(C(=O)NCc3ccc(OC(F)F)cc3)cnc21` (centres unmarked) [Example 685, N-({4-[(Difluoromethyl)oxy]phenyl}methyl)-1-ethyl-4-{[4-(hydroxyimino)cyclohexyl]amino}-1H-pyrazolo[3,4-b]pyridine-5-carboxamide], 0.1 to 6.31 nM. To `CCn1ncc2c(NC3CCC(=NO)CC3)c(C(=O)NCc3cccc(Cl)c3Cl)cnc21` (centres unmarked) [Example 682, N-[(2,3-Dichlorophenyl)methyl]-1-ethyl-4-{[4-(hydroxyimino)cyclohexyl]amino}-1H-pyrazolo[3,4-b]pyridine-5-carboxamide] belongs 0.1 to 6.31 nM; to `CCn1ncc2c(NC3CCC(=O)CC3)c(C(=O)NCc3ccc(N(C)C)cc3)cnc21` [Example 265, N-{[4-(Dimethylamino)phenyl]methyl}-1-ethyl-4-[(4-oxocyclohexyl)amino]-1H-pyrazolo[3,4-b]pyridine-5-carboxamide], 0.1 to 6.31 nM.
